Measured values taken from patent publication US20240158394A1, “NEK7 INHIBITORS” (Halia Therapeutics, Inc., priority 2022, published 2024).

Biological target: full-length recombinant human NEK7 (Homo sapiens (Human), UniProt Q8TDX7)
Experiment: NEK7 Enzymatic Assay
Format: biochemical
Details: casein substrate, [33P]-ATP, 2 hours at room temperature
Experimental: Casein substrate (from bovine milk, hydrolyzed and partially dephosphorylated mixture of α, β and κ caseins, obtained from Sigma Aldrich, catalogue #C4765, diluted in distilled water to a final concentration of 1 mg/mL) and full-length recombinant human NEK7 (expressed by baculovirus in Sf9 insect cells using a N-terminal GST tag, obtained from SignalChem, catalogue #N09-10G, 0.1 μg/μL) were mixed in assay buffer (20 mM HEPES pH 7.5, 10 mM MgCl2, 1 mM EGTA, 0.02% Brij35, 0.02 mg/mL BSA, 0.1 mM Na3VO4, 2 mM DTT, 1% DMSO). Compounds of interest (serial 3-fold dilution in DMSO from 10 μM to 0.5 nM) or vehicle (1% DMSO) were dispensed into the kinase reaction mixture by Acoustic technology (Echo550; nanoliter range). After incubation at room temperature for 20 minutes, the kinase reaction was initiated by addition of [^33P]-ATP (specific activity 10 μCi/μL) and the mixture was incubated at room temperature for 2 hours. The reaction was then stopped by spotting the reaction mixture on strips of phosphocellulose P81 paper. Following washing, the radioactivity of the P81 paper was measured and kinase activity data were expressed as the percent remaining kinase activity in test samples compared to vehicle reactions. IC50 values and curve fits were obtained using Prism (GraphPad Software).

full-length recombinant human NEK7, sequence (Q8TDX7 whole entry): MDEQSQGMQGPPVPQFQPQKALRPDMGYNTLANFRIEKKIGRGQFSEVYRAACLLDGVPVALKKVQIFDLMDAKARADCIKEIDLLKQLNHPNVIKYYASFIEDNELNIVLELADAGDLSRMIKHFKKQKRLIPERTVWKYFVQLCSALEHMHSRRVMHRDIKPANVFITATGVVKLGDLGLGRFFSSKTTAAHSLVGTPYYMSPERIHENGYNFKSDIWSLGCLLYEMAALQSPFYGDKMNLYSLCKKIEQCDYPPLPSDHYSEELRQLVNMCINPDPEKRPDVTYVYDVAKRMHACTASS

Row | Structure (SMILES) | IC50 [nM]
1 | CN1CCN(Cc2ccc(NC(=O)Nc3ccc(-c4cn(C)c5ncnc(N)c45)n4ccnc34)cc2C(F)(F)F)CC1 [Example I-127, 1-(5-(4-amino-7-methyl-7H-pyrrolo[2,3-d]pyrimidin-5-yl)imidazo[1,2-a]pyridin-8-yl)-3-(4-((4-methylpiperazin-1-yl)methyl)-3-(trifluorometh-yl)phenyl)urea] | < 200
2 | Nc1ncnc2c1c(-c1ccc(NC(=O)Nc3cc(C4(C(F)(F)F)CC4)no3)c3cnccc13)cn2C1CC1 [Example I-7, 1-(5-(4-amino-7-cyclopropyl-7H-pyrrolo[2,3-d]pyrimidin-5-yl)isoquinolin-8-yl)-3-(3-(1-(trifluoromethyl)cyclopropyl)-isoxazol-5-yl)urea] | 500 to 2000
3 | CC(C)n1cc(-c2ccc(NC(=O)Nc3ccc(OC4CCN(C)CC4)c(C(F)(F)F)c3)c3nccn23)c2c(N)ncnc21 [Example I-135, 1-(5-(4-amino-7-isopropyl-7H-pyrrolo[2,3-d]pyrimidin-5-yl)imidazo[1,2-a]pyridin-8-yl)-3-(4-((1-methylpiperidin-4-yl)oxy)-3-(trifluoromethyl)-phenyl)urea] | < 200
4 | CN1CCN(Cc2ccc(NC(=O)Nc3ccc(-c4cn(C5CC5)c5ncnc(N)c45)c4nonc34)cc2C(F)(F)F)CC1 [Example I-78, 1-(7-(4-amino-7-cyclopropyl-7H-pyrrolo[2,3-d]pyrimidin-5-yl)benzo[c][1,2,5]oxadiazol-4-yl)-3-(4-((4-methylpiperazin-1-yl)methyl)-3-(trifluorometh-yl)phenyl)urea] | < 200
5 | CC1(c2cc(NC(=O)Nc3ccc(-c4cn(C5CC5)c5ncnc(N)c45)c4ccncc34)on2)CC1 [Example I-6, 1-(5-(4-amino-7-cyclopropyl-7H-pyrrolo[2,3-d]pyrimidin-5-yl)isoquinolin-8-yl)-3-(3-(1-methylcyclopropyl)isoxazol-5-yl)urea] | 200 to 500
6 | Cc1ccc(-n2nc(C(C)(C)C)cc2NC(=O)Nc2ccc(-c3cn(C4CC4)c4ncnc(N)c34)n3ccnc23)cc1 [Example I-12, 1-(5-(4-amino-7-cyclopropyl-7H-pyrrolo[2,3-d]pyrimidin-5-yl)imidazo[1,2-a]pyridin-8-yl)-3-(3-(tert-butyl)-1-(p-tolyl)-1H-pyrazol-5-yl)urea] | 200 to 500

More lines, now with the values ahead:

Row | IC50 [nM] | Structure (SMILES)
7 | < 200 | COCCn1cc(-c2ccc(NC(=O)Nc3cc(C4(C(F)(F)F)CC4)on3)c3nccn23)c2c(N)ncnc21 [Example I-89, 1-(5-(4-amino-7-(2-methoxy-ethyl)-7H-pyrrolo[2,3-d]-pyrimidin-5-yl)imidazo[1,2-a]pyridin-8-yl)-3-(5-(1-(trifluoromethyl)cyclopropyl)-isoxazol-3-yl)urea]
8 | < 200 | CC(C)(C)c1cc(NC(=O)Nc2ccc(-c3cn(C4CC4)c4ncnc(N)c34)n3ccnc23)no1 [Example I-27, 1-(5-(4-amino-7-cyclopropyl-7H-pyrrolo[2,3-d]pyrimidin-5-yl)imidazo[1,2-a]pyridin-8-yl)-3-(5-(tert-butyl)isoxazol-3-yl)urea]
9 | 500 to 2000 | CC1Cc2c(-c3cn(C4CC4)c4ncnc(N)c34)ccc(NC(=O)Nc3cc(C4(C(F)(F)F)CC4)on3)c2O1 (stereo not shown) [Example I-56, 1-(4-(4-amino-7-cyclopropyl-7H-pyrrolo[2,3-d]pyrimidin-5-yl)-2-methyl-2,3-dihydro-benzofuran-7-yl)-3-(5-(1-(trifluoromethyl)cyclopropyl)-isoxazol-3-yl)urea]
10 | 500 to 2000 | Nc1ncnc2c1c(-c1ccc(NC(=O)Nc3cc(C4(C(F)(F)F)CC4)on3)c3ocnc13)cn2C1CC1 [Example I-71, 1-(4-(4-amino-7-cyclopropyl-7H-pyrrolo[2,3-d]pyrimidin-5-yl)benzo[d]oxazol-7-yl)-3-(5-(1-(trifluoromethyl)cyclo-propyl)isoxazol-3-yl)urea]
